{"source": "ChEMBL document CHEMBL5537136", "about": "(J Med Chem, 2024)", "key": {"[1]": {"molecular_target": "Poly [ADP-ribose] polymerase 2 (Homo sapiens, UniProt Q9UGN5)", "sequence (Q9UGN5 whole entry)": "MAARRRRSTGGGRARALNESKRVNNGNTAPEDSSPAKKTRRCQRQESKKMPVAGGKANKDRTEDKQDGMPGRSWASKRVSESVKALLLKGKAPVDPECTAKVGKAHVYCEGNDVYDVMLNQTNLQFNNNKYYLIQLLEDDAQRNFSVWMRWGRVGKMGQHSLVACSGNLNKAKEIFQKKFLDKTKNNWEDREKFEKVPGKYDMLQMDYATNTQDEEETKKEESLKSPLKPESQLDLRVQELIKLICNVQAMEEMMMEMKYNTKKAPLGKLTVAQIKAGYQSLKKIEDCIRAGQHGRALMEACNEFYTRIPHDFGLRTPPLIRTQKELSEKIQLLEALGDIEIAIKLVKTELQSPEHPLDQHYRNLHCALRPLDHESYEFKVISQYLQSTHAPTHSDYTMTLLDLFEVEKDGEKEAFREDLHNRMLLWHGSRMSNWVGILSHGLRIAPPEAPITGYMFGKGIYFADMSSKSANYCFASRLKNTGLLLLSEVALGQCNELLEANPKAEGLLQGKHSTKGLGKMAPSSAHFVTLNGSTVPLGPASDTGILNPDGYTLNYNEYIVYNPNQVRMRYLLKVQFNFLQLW", "test": "Inhibition of PARP2 (unknown origin) measured after 1 hr incubation by microplate reader assay"}, "[2]": {"test": "Toxicity in Balb/c mouse bearing mouse CT26 cells assessed as morphological changes in liver at 6.25 to 25 mg/kg, IG measured after 14 days by hematoxylin and eosin staining based assay", "format": "organism-based", "details": "in vivo, po, 336 h, dose 6.25-25 mg/kg, time 14 day"}, "[3]": {"molecular_target": "T1, Protein mono-ADP-ribosyltransferase PARP12 (Homo sapiens, UniProt Q9H0J9)", "T1 sequence (Q9H0J9 whole entry)": "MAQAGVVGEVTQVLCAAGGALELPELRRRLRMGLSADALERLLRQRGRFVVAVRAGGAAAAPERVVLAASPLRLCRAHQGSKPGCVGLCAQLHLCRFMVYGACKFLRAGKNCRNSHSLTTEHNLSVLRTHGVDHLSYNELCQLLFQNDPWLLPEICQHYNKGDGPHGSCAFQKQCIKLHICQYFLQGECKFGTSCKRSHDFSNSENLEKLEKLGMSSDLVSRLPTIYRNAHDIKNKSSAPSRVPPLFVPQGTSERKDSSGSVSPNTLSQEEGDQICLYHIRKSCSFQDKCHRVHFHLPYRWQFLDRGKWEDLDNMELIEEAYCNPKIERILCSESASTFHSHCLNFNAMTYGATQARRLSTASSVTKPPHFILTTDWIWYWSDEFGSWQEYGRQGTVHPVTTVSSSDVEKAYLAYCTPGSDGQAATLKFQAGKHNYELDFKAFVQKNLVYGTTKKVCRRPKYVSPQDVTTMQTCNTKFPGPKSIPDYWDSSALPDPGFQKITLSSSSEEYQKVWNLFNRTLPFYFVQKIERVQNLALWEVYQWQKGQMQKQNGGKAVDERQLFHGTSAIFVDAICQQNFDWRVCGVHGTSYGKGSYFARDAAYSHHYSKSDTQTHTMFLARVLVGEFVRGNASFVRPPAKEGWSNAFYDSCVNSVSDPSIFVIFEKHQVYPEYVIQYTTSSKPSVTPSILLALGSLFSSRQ", "test": "Inhibition of PARP12 (unknown origin) measured after 1 hr incubation by microplate reader assay"}, "[4]": {"test": "Cmax in ICR mouse at 1 mg/kg, iv measured upto 24 hrs by LC-MS/MS analysis", "format": "ADME, organism-based", "details": "in vivo"}, "CT26 [5]": {"tested_on": "CT26", "test": "Antitumor activity in immunocompetent mouse CT26 cell bearing Balb/c mouse model assessed as induction of IFN-beta release in tumor tissue at 6.25 to 25 mg/kg, IG treated twice a day measured after 14 days by immunohistochemistry staining based assay", "format": "functional, organism-based", "details": "dose lower 6.25 mg/kg, dose upper […], time 14.0 day"}, "CT26 [6]": {"tested_on": "CT26", "test": "Antitumor activity against mouse CT26 cells implanted in immunodeficient Balb/c mouse assessed as inhibition of tumor growth at 25 mg/kg, IG twice daily measured after 10 days relative to control", "format": "functional", "details": "CT26, po, 240 h, time 10 day, read-out: TGI"}, "[7]": {"test": "Toxicity in Balb/c mouse bearing mouse CT26 cells assessed as morphological changes in heart at 6.25 to 25 mg/kg, IG measured after 14 days by hematoxylin and eosin staining based assay", "format": "organism-based", "details": "in vivo, po, 336 h, dose 6.25-25 mg/kg, time 14 day"}, "[8]": {"test": "C0 in ICR mouse at 1 mg/kg, iv measured upto 24 hrs by LC-MS/MS analysis", "format": "ADME, organism-based", "details": "in vivo"}, "[9]": {"molecular_target": "T2, Protein mono-ADP-ribosyltransferase PARP11 (Homo sapiens, UniProt Q9NR21)", "T2 sequence (Q9NR21 whole entry)": "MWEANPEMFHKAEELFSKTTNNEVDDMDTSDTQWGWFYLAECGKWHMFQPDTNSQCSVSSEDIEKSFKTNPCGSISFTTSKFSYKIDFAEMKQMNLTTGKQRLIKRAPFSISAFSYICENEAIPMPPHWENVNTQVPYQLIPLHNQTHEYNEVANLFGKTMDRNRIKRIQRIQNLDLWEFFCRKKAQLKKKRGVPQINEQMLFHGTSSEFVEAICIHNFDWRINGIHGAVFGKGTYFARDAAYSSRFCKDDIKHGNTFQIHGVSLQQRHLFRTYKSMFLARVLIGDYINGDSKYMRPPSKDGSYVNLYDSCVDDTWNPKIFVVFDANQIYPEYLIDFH", "test": "Inhibition of PARP11 (unknown origin) measured after 1 hr incubation by microplate reader assay"}, "CT26 [10]": {"tested_on": "CT26", "test": "Antitumor activity against mouse CT26 cells implanted in Balb/c mouse assessed as increase in infiltration CD8 positive T cells in tumors at 25 mg/kg, IG measured after 14 days by flow cytometry", "format": "functional, organism-based", "details": "time 14.0 day"}}, "note": "Calls of active or inactive are those of the source. No cut-off for these calls is given here."}
{"smiles": "C[C@@H](C(=O)N1CCN(c2ncc(C(F)(F)F)cn2)CC1)n1cc2cccc(C(N)=O)c2n1", "values": [{"measurement": "IC50", "setting": "[1]", "result": 303, "unit": "nM"}, {"measurement": "Activity", "setting": "[2]", "result": "Non-Toxic"}, {"measurement": "IC50", "setting": "[3]", "result": 664, "unit": "nM"}, {"measurement": "Cmax", "setting": "[4]", "result": 1360, "unit": "ng/mL"}, {"measurement": "Activity", "setting": "CT26 [5]", "result": "Active"}, {"measurement": "inhibition in vivo at 25 mg/kg", "setting": "CT26 [6]", "result": 4, "unit": "%"}, {"measurement": "Activity", "setting": "[7]", "result": "Non-Toxic"}, {"measurement": "C0 at 24 h", "setting": "[8]", "result": 1590, "unit": "ng/mL"}, {"measurement": "IC50", "setting": "[9]", "result": "> 5000", "unit": "nM"}, {"measurement": "Activity", "setting": "CT26 [10]", "result": "Active"}]}
